From patent US20160015725A1, “METHODS OF CONTROLLING TUMOR BIOENERGETICS NETWORKS” (THE WISTAR INSTITUTE OF ANATOMY AND BIOLOGY, priority 2012, published 2016)

Experiments:
Assay type in all cases: cell-based, human
[1] = tested on: LN229 cells; assay: Cell viability by MTT; conditions: Gamitrinib combined with 2-DG vs each agent alone
Experimental: Various cell types were seeded in triplicate onto 96-well plates at 4×10^3 cells/well, treated with vehicle, Gamitrinib or 17-AAG (0-20 μM) for 12 h, and analyzed for changes in metabolic activity by an MTT assay. For determination of apoptosis, LN229 cells ([…]) were labeled for annexin V and propidium iodide (PI) (BD Biosciences), and analyzed by multiparametric flow cytometry (BD).

[2] = tested on: WT BRAF spheroids; assay: 3D organotypic spheroids, WT BRAF; conditions: collagen-embedded, 72 h
Experimental: For analysis of tumor cell survival in 3D organotypic cultures, melanoma spheroids were prepared as previously described. Briefly, 50 μl aliquots of the various melanoma cell types (5×10^4 cells/ml) were seeded onto 96-well plates coated with 1.5% agar (Difco, Sparks, Md.) in PBS. Spheroids were allowed to form for 72 h and then embedded in 100 μl of bovine collagen type I (Organogenesis, Canton, Mass.). Spheroids were overlaid with 100 μl of Tu2% growth medium and treated with inhibitors for 72 hours. Quantification of live vs. dead cells under the various conditions tested was performed by staining the melanoma spheroids after 72 h of treatment with calcein-AM (live) and Topro-3 (dead) (Invitrogen) for 1 h (data not shown).

[3] = tested on: hexokinase-II (HK-II); assay: Subcellular fractionation and Western blotting of hexokinases; conditions: LN229, 5 h
Experimental: Mitochondrial fractions were isolated from Gamitrinib treated LN229 cells (0-20 μM for 5 h) using an ApoAlert™ cell fractionation kit (CLONTECH). Briefly, LN229 cells were mechanically disrupted by 60 strokes with a Dounce homogenizer in isolation buffer containing 1 mM DTT plus protease inhibitor cocktail. Cell debris was removed by centrifugation at 700 g for 10 min. The supernatant was further centrifuged at 10,000 g for 25 min, and supernantants or mitochondrial pellets were processed for further analysis.
(§1) For Western blotting, protein lysates were prepared from the different cell types in RIPA Buffer (150 mM NaCl, 1.0% Triton X-100, 0.5% sodium deoxycholate, 0.1% SDS, 50 mM Tris, pH 8.0) containing EDTA-free Protease Inhibitor Cocktail (Roche) and Phosphatase Inhibitor Cocktail 2 and 3 (Sigma Aldrich). Equal amounts of protein lysates were separated by SDS gel electrophoresis, transferred to PVDF membranes and incubated with primary antibodies of various specificities. Protein bands were detected by chemiluminescence.

[4] = tested on: LN229 cells; assay: ROS production, H2-DCFA labeling; conditions: cytotoxic or non-cytotoxic concentrations, various time intervals
[5] = tested on: PC3 cells; assay: ER stress luciferase-promoter reporter assay; conditions: PC3, 20 h
Experimental: In another series of experiments, PC3 cells were transfected with control or Grp78-directed siRNA, and analyzed for cell viability after 24 h by an MTT assay. For promoter analysis, PC3 cells were plated in triplicate onto 48-well plates at 1.4×10^4 cells/well, and cotransfected with Firefly Luciferase-reporters for IRE1, ATF6, PERK or CHOP and a constitutive reporter (pTK-Renilla Luc) in a 10:1 ratio using X-tremeGENE reagent (Roche). After 24 h, cells were treated with vehicle, Gamitrinib, tunicamycin or 2-DG and analyzed after 20 h for Firefly and Renilla luciferase activity using a Dual Luciferase Reporter Assay System (Promega). Transfection of plasmid DNAs was carried out with lipofectamine 2000 (Invitrogen) according to published protocols. A PPIase-defective CypD H168Q mutant cDNA was generated by Quick-Change site-directed mutagenesis (Stratagene) using primers 5′-[…]-3′ (forward) and 5′-[…]-3′ (reverse) (mutated sequences are bolded). The inserted mutation (bolded) was confirmed by DNA sequencing, and cloned in a pcDNA3.0 expression vector (Invitrogen) for reconstitution experiments in CypD−/− MEFs.

[6] = tested on: WT BRAF melanoma cells; assay: AMPK and autophagy signaling in WT BRAF melanoma cells
From the text: Human glioblastoma LN229, prostate adenocarcinoma PC3 or LNCaP cells, or normal NIH3T3 fibroblasts were obtained from the American Tissue Culture Collection (ATCC, Manassas, Va.), and maintained in culture according to the supplier's specifications. The following wild type (WT) BRAF N-Ras mutant melanoma cells WM852 and WM1366, and melanoma cells carrying a V600E activating mutation in the BRAF oncogene, 451Lu, Me11617 and WM983B were used in this study. WT or CypD knockout Mouse Embryonic Fibroblasts (MEFs, CypD−/−) were characterized earlier 40. In some experiments, CypD−/− MEFs were stably transfected with control plasmid, WT CypD or peptidyl prolyl isomerase (PPIase)-deficient H168Q CypD mutant cDNA, and analyzed for differential recruitment of HK-II to mitochondrial or cytosolic fractions.
as §1
Samples were imaged using a Leica TCS SP2 confocal microscope. For determination of autophagy, cells under the various conditions tested were harvested after 12 h, and analyzed with an antibody to […] (LC3) by Western blotting.

[7] = tested on: multiple tumor cell types; assay: ATP production in tumor cells (luciferin-luciferase)
Experimental: Intracellular ATP concentrations were measured by the luciferin—luciferase method using an ATP measuring kit (Biochain). The ATP concentration in each extract was measured with a microplate luminometer (Beckman Coulter) against standard ATP solutions used as reference. In some experiments, PC3 or LN229 cells were preincubated with sodium pyruvate for 7 h in the presence of vehicle or Gamitrinib before determination of ATP production.

[8] = tested on: AMP-activated kinase (AMPK); assay: AMPK phosphorylation in tumor cells, Western blotting

## CO[C@H]1/C=C\C=C(/C)C(=O)NC2=CC(=O)C(NCCCCCC[P+](c3ccccc3)(c3ccccc3)c3ccccc3)=C(C[C@@H](C)C[C@H](OC)[C@H](O)[C@@H](C)/C=C(\C)[C@@H]1OC(N)=O)C2=O [Gamitrinib]
[1]
  tumor cell killing, combined with 2-DG: increased tumor cell killing
[2]
  cell death in 3D spheroids: resistant to cell death
[3]
  HK-II localization (mitochondria vs cytosol): concentration-dependent release of hexokinase-II (HKII) from mitochondria
[4]
  production of reactive oxygen species (ROS): had no effect on production of reactive oxygen species (ROS)
[5]
  minimal CHOP promoter activity: transcriptionally induced
  transcriptional activation of response elements of IRE-1, ATF-6 and PERK: comparably induced transcriptional activation
[6]; WT BRAF cells
  autophagy: stimulated autophagy
[6]; WT BRAF melanoma cells
  AMPK phosphorylation: induced AMPK phosphorylation
[7]; multiple tumor cell types
  time to inhibition of ATP production: ≤ 5 h
[7]; tumor cell types, non-cytotoxic concentrations, 5 h
  ATP production: concentration-dependent inhibition of ATP production
[8]; Gamitrinib combined with 2-DG
  AMPK and eIF2α phosphorylation, combined with 2-DG: maximally stimulated AMPK and eIF2α phosphorylation
[8]; combination with metformin
  AMPK phosphorylation, combination of metformin plus Gamitrinib: did not further stimulate AMPK phosphorylation
[8]; tumor cells
  AMPK activation compared with metformin: more prominent than that induced by metformin
  AMPK activation remained sustained: ≥ 9 h
  AMPK phosphorylation: concentration dependent phosphorylation of AMP-activated kinase (AMPK)
  onset of AMPK activation: ≤ 30 min
  total AMPK levels: not affected
